{"source": "patent US10010560B2", "about": "“Small molecule HSP70 inhibitors” (THE TRUSTEES OF THE UNIVERSITY OF PENNSYLVANIA, priority 2014, dated 2018)", "key": {"[1]": {"tested_on": "human melanoma cell lines", "experiment": "MTT assays of human melanoma cell lines", "format": "cell-based", "details": "several melanoma cell lines, 72 h", "method": "FIGS. 2A-2D illustrate the cytotoxicity of PET-16 to human tumor cells and its inhibition on E. coli growth. FIG. 2A is a line graph with data obtained from MTT assays of human melanoma cell lines treated with the indicated concentrations of PES or PET-16 for 72 h. The corresponding cell survival is normalized to vehicle (DMSO) treatment. Average and standard deviation (s.d.) from three independent experiments are shown. FIG. 2B are bar graphs of human melanoma (A875) cells and nontransformed human (IMR90) fibroblasts that were treated with DMSO, 10 μM PES or 10 μM PET-16 for 24 h. […] FIG. 2C is a line graph illustrating the growth of E. coli DH5α treated with different concentrations of PES or PET-16 for 6 h at 43° C. Error bars represent the s.d. of four independent experiments. FIG. 2D is a bar graph illustrating the growth of E. coli DH5α treated with DMSO, 30 μM PET-16 or 30 μM TPP for 6 h at 43° C. Error bars represent the s.d. of four independent experiments.\nMTT assays of human melanoma cell lines, as indicated, treated with the indicated concentration of PET-16 for 72 hours. The corresponding cell survival is normalized to vehicle (DMSO) treatment. Average and standard deviation (s.d.) from three independent experiments are shown."}, "[2]": {"tested_on": "mouse melanoma cell line Yumm 1.7", "experiment": "In vivo melanoma model, Yumm 1.7", "details": "single agent, C57BL/6 mice", "method": "FIGS. 14A and 14B provide evidence that PET-16 impairs melanoma growth in vivo as a single agent. A well-recognized pulmonary metastatic model was utilized in which immunocompetent, wild-type C57BL/6 mice were injected with the metastatic mouse melanoma cell line Yumm 1.7, as indicated. […] FIG. 14A is a summary of the steps entailed in the model."}, "HSP70 [3]": {"molecular_target": "T1, HSP70 (Homo sapiens, UniProt P0DMV8)", "T1 sequence (P0DMV8 whole entry)": "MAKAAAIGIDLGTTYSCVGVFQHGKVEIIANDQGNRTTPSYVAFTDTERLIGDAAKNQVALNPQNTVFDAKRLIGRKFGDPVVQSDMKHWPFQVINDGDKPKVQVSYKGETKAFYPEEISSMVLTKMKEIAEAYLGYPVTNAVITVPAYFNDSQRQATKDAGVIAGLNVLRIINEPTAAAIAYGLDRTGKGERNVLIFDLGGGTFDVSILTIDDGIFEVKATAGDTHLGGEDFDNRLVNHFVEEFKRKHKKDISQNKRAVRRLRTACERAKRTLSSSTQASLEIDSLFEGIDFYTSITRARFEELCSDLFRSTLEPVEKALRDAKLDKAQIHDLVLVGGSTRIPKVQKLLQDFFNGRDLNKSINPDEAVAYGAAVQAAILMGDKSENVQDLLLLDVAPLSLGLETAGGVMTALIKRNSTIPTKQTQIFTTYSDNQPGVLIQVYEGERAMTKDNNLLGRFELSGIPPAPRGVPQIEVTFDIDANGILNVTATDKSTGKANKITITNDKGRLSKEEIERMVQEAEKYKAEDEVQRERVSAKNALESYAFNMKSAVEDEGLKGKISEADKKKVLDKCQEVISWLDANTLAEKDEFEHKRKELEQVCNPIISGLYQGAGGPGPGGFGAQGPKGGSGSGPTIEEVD", "experiment": "Immunoprecipitation of HSP70 and co-precipitating proteins", "format": "cell-based", "set-up": "endogenous in cells; host or cells: A875 and 451 Lu human melanoma cells", "details": "IP-WB, A875 or 451 Lu cells", "description": "(§1) FIGS. 4A-4L illustrate that PET-16 impairs proteostasis. […] There is a general absence of obvious nuclei in PET-16 treated tumor cells. […] FIGS. 4D and 4E are gels of whole-cell extracts (WCE) prepared from human melanoma A875 (D) or 451 Lu (E) cells treated with DMSO, PES or PET-16 that were immunoprecipitated using an anti-HSP70 antibody. The excised band of about 70 kDa shown in the Coomassie gel is HSP70, as confirmed by liquid chromatography—tandem mass spectrometry analysis. FIGS. 4F-4I are western blots of cell lines were treated with DMSO, PES or PET-16 for 24 h and immunoblotted for the indicated proteins. FIG. 4J are western blots of indicated melanomas pretreated with DMSO, PES or PET-16, followed by treatment with IL-6. Cell extracts were immunoblotted for the proteins indicated. Inhibition of IL-6 induced STAT3 and STAT1 phosphorylation by PET-16. FIG. 4K is a western blot analysis indicating altered processing of cathepsin L from the larger precursor form to the smaller mature form in the indicated cells following PET-16 treatment for 24 h. FIG. 4L is a western blot of the human melanoma 451 Lu cells treated with DMSO, PES or PET-16 for 24 h. Cells were harvested in 1% NP40-containing lysis buffer, fractionated into detergent-soluble and detergent-insoluble preparations, and assayed by western blot for ubiquitin. […]"}, "LC3": {"tested_on": "LC3", "experiment": "Western blot for autophagy marker LC3", "format": "cell-based, human", "details": "A875 melanoma cell line", "description": "as §1"}, "HSP70 [4]": {"molecular_target": "T1, HSP70", "experiment": "B-PES pull-down assay in cultured tumor cells", "format": "cell-based", "set-up": "endogenous in cells", "details": "H1299 cells pretreated with excess (8×) compound for 1 h, then 20 μM B-PES", "description": "FIGS. 3A-3L illustrate that PET-16 binds directly to ADP-bound HSP70 and DnaK. Specifically, FIGS. 3A-3H are isothermal calorimetric titration (ITC) assays of the indicated compounds (NRLLLTG—SEQ ID NO: 7, PES or PET-16) with purified HSP70-ADP, DnaK-ADP or HSP70-ATP proteins. The data are representative of three independent experiments. FIGS. 3I and 3J are ITC assays for the interaction between HSP70 (aa 386-616 of SEQ ID NO: 2) protein and PET-16 (I) or TPP (J). Binding constants (Kd values) are shown (average and s.d. from three independent experiments). PET-16 also binds directly to the purified, full-length, nucleotide-free HSP70 protein, with a reported dissociation constant of 5.2+/−0.1 micromolar, which is the average and standard deviation from two independent experiments (data not shown). FIG. 3K is ITC assay of HSP70 protein preincubated with ADP and PES for 1 h. The mixture was titrated into the sample cell containing PET-16. The data are representative of three independent ITC experiments. FIG. 3L are western blots of human lung carcinoma (H1299) cells that were pretreated with DMSO or excess (8×) PET-16 for 1 h prior to the addition of 20 μM B-PES for 5 h and examined for the expression of HSP70 or BCL-xL. B-PES-containing complexes were captured by Avidin resins and immunoblotted either with anti-HSP70 or anti-BCL-xL antibody. […]"}}}
{"compound": "C(#C[P+](c1ccccc1)(c1ccccc1)c1ccccc1)c1ccccc1.[Br-]", "note": "[PET-16, triphenyl(phenylethynyl)phosphonium bromide]", "values": [{"measurement": "IC50", "setting": "[1]", "value": "0.5 to 1.5", "unit": "µM"}, {"measurement": "melanoma growth in vivo", "setting": "[2]", "value": "inhibits melanoma xenograft growth"}, {"measurement": "interactions between HSP70 and client/substrate proteins", "setting": "HSP70 [3]", "value": "loss of interactions"}, {"measurement": "autophagy marker processed LC3II", "setting": "LC3", "value": "increase"}, {"measurement": "amount of HSP70 in complex with B-PES", "setting": "HSP70 [4]", "value": "clearly reduced"}]}
